Where a name gives a salt, the structure may show the parent alone.

One assay has as its system adenyl cyclase. As to the kind of experiment: Inhibition of adenyl cyclase function. It is filed as biochemical.
Assay [1] is described as follows: Antihypertensive properties in in vivo animal testing.
The subject of the next assay is phosphodiesterase. As to the kind of experiment: Phosphodiesterase inhibition. Format: biochemical.
The nature of assay [2]: Anti-inflammatory activity in in vivo animal testing.
Assay [3] deals with intact anesthetized dog (myocardial contractility). As to the kind of experiment: In vivo positive inotropic effect (dP/dT max) in the intact anesthetized dog. The note with it: i.v. infusion 1 mg/kg per min. As for the experimental part: (§1) The measurement dP/dT max was used as the index of change in myocardial contractility (inotropism). Compound 12 was given as an intravenous infusion at the rate of 1 mg/kg per min. in total single doses of 1.0 to 10.0 mg/kg and the values are expresses as percent of control.
In Vivo Positive Inotropic Effect
Measurement of myocardial contractility (inotropism)
using dP/dT max (% of control) as index of measurement of inotropic

Assay [4] has as its system renal and mesenteric blood flow. As to the kind of experiment: Renal and mesenteric blood flow in anesthetized dogs. It is filed as in vivo, dog.
A further assay has as its system unanesthetized dogs. As to the kind of experiment: Inotropic effect in unanesthetized dogs. The note with it: compared with anesthetized dogs. Format: in vivo, dog. As to the method:
as §1

The test system of assay [5] is isolated cat papillary muscle. In words: Positive inotropic effect: % change in contractile force in isolated cat papillary muscle.

In the case of `CCN(CC)c1ncnc2c1nc(N(CC)CC)n2[C@@H]1O[C@@H]2COP(=O)(O)O[C@H]2[C@H]1O` [Compound 11, 6,8-Bis-(diethylamino)-9-β-D-ribofuranosylpurine 3',5'-Cyclic Phosphate], in the assay with adenyl cyclase, the “inhibition of adenyl cyclase function” value is on record as “inhibit adenyl cyclase function”. Besides, the antihypertensive properties entry in assay [1] is “displayed antihypertensive properties”. For the same compound, the inhibition of phosphodiesterase result in the assay on phosphodiesterase was “inhibit phosphodiesterase markedly”.

`O=P1(O)OC[C@H]2O[C@@H](n3c(SCc4ccccc4)nc4c(N5CCCCC5)ncnc43)[C@H](O)[C@@H]2O1` [Compound 16, 8-(Benzylthio)-6-piperidino-9-β-D-ribofuranosylpurine 3',5'-Cyclic Phosphate]: in the assay with adenyl cyclase, the “inhibition of adenyl cyclase function” value is “inhibit adenyl cyclase function”. Also, the inhibition of phosphodiesterase result in the assay with phosphodiesterase is listed as “inhibit phosphodiesterase markedly”. The anti-inflammatory activity result in assay [2] is “displayed anti-inflammatory activity”.

`CC(=O)O[C@@H]1[C@@H]2OP(=O)(O)OC[C@H]2O[C@H]1n1c(Sc2ccc(Cl)cc2)nc2c(Cl)ncnc21` [Compound 33, 2'-O-Acetyl-6-chloro-8-(p-chlorophenylthio)-9-β-D-ribofuranosylpurine 3',5'-Cyclic Phosphate Sodium Salt]: the antihypertensive properties result in assay [1] is “displayed antihypertensive properties”. The anti-inflammatory activity result in assay [2] is given as “displayed anti-inflammatory activity”.

As for “8-(Benzylthio)-6-(diethylamino)-9-β-D-ribofuranosylpurine 3',5'-CyclicPhosphate [Compound 12]”, the “dP/dT max (% of control)” value in assay [3] (1.0 mg/kg, 1 minute after infusion) is listed as 120%; in assay [3] (1.0 mg/kg, 3 minutes after infusion), 120%; in assay [3] (1.0 mg/kg, 5 minutes after infusion), 130%; in assay [3] (1.0 mg/kg, 15 minutes after infusion), 110%; in assay [3] (3.1 mg/kg, 1 minute after infusion) it was 200%; in assay [3] (3.1 mg/kg, 3 minutes after infusion), 180%. Besides, the “dP/dT max (% of control)” value in assay [3] (3.1 mg/kg, 5 minutes after infusion) was found to be 160%; in assay [3] (3.1 mg/kg, 15 minutes after infusion), 140%; in assay [3] (3.1 mg/kg, 30 minutes after infusion), 105%; in assay [3] (10.0 mg/kg, 1 minute after infusion) it was 210%; in assay [3] (10.0 mg/kg, 3 minutes after infusion) it was 200%; in assay [3] (10.0 mg/kg, 5 minutes after infusion), 180%. In addition, the “dP/dT max (% of control)” value in assay [3] (10.0 mg/kg, 15 minutes after infusion) was found to be 140%; in assay [3] (10.0 mg/kg, 30 minutes after infusion), 100%. In addition, the mesenteric blood flow result in assay [4] was “increase in renal and mesenteric blood flow”. In addition, in assay [4], the renal blood flow entry was “increase in renal and mesenteric blood flow”. Further, the “inotropic effect in unanesthetized dogs” value with unanesthetized dogs is given as “same inotropic effect”. In addition, the “% change in Contractile Force (CF)” value is on record as 3.8% in assay [5] (1.0 μg/ml); 8.0% in assay [5] (3.1 μg/ml); 12.7% in assay [5] (10.0 μg/ml); 27.0% in assay [5] (31.0 μg/ml); 46.0% in assay [5] (100 μg/ml); 56.0% in assay [5] (310 μg/ml). The positive inotropic effect entry in assay [5] (statement in words, isolated cat papillary muscle) was “exhibit positive inotropic effect”.

The values are drawn from patent US4058659A, “6,8-Disubstituted purine derivatives of 9-β-D-ribofuranosyl 3',5'-cyclic phosphate” (ICN Pharmaceuticals, Inc., priority 1975, dated 1977).
